According to paper PMC4552634, “A New Set of Chemical Starting Points with Plasmodium falciparum Transmission-Blocking Potential for Antimalarial Drug Discovery” (PLoS ONE, 2015):
pIC50: −log10 of the molar value. Where two headings read alike, the source gives them in different places.

Assays:
[1] = test system: luciferase reaction (BacTiter-Glo); assay: Interference assay (inhibition of the BacTiter-Glo luciferase reaction); assay type: biochemical; design: concentration or dose not given beside the values; conditions: ATP interference assay
Method: To discard possible false-positive results, we performed an interference assay in parallel. […] […]. The ATP solution was made by dissolving ATP powder (ATP standard from the ATPlite 1 step assay kit, reference 6016731, Perkin Elmer) in culture medium. The positive control used was the Luciferase Inhibitor I Calbiochem (Merck, 119113) at 100 μM.

[2] = test system: P. falciparum asexual stages; conditions: cited from earlier work; for pIC50: asexual stages, read-out: IC50 asexual
[3] = test system: HepG2 cells; assay: Cytotoxicity in HepG2 cells (intracellular ATP, ATPlite, 48 h); assay type: cell-based, human; conditions: for pIC50: HepG2 cells, IC50 per ratio column head, unit inferred; for Ratio IC50 HepG2/IC50 P. falciparum: IC50 HepG2 divided by IC50 P. falciparum gametocytes
Method: (§1) Cells were grown and maintained in EMEM (Sigma-Aldrich) supplemented with 2mM L-glutamine (Sigma-Aldrich) and 10% fetal calf serum (Perbio). […] Passages were routinely made upon reaching 80–90% confluence. For cytotoxicity experiments, cells were seeded onto 96-well clear bottom black plates coated with type I collagen (Biocoat, Becton Dickinson) at a cell density of 20,000 cells/well.
(§2) To determine cytotoxic effects, represented by the Tox50 value (the concentration of drug that reduces cell viability by 50%), cells were exposed to serial dilutions of compounds for 48 h at 37°C. The assay medium was as previously described, but supplemented with 5% fetal calf serum instead of 10%. […] In the presence of ATP, luminescence is emitted as the reaction described earlier for the BacTiter-Glo kit. Percentages of inhibition were calculated relative to vehicle control wells.

[4] = test system: P. falciparum stage V gametocytes; assay: Gametocytocidal ATP bioluminescence assay (single point 5 μM and 1 μM, dose-response); assay type: cell-based, Plasmodium falciparum; conditions: for Ratio IC50 HepG2/IC50 P. falciparum: IC50 HepG2 divided by IC50 P. falciparum gametocytes; for IC50: P. falciparum gametocytes, average
Method: Purified stage IV-V gametocytes were obtained as previously described [10]. Single point ATP bioluminescence assay and dose–response of positive hits was determined in accordance with the previously published protocol [10].

[5] = Cytotoxicity in HepG2 cells (intracellular ATP, ATPlite, 48 h); assay type: cell-based, human; conditions: human, HepG2 cells
Method: as §1, §2

[6] = test system: P. falciparum stage V gametocytes; assay: microbe, parasite or virus in culture; design: BacTiter-Glo ATP luminescence viability of purified stage V gametocytes in 384-well plates, per cent inhibition versus DMSO; conditions: Plasmodium falciparum, 48 h, read-out: % Inhibition
[7] = read-out: IC50 Pf Gametocytes average, IC50 (µM) average
[8] = sexual stages (gametocytes), dose-response, read-out: IC50 sexual
[9] = Plasmodium falciparum, read-out: IC50 Pf Gametocytes average, IC50 (µM) average
[10] = P. falciparum asexual stages, TCAMS data, read-out: IC50 (µM) Pf asexual stages
[11] = Plasmodium falciparum, sexual stages (gametocytes), dose-response, read-out: IC50 sexual
[12] = IC50 per ratio column head, unit inferred, read-out: Cytotoxicity in HepG2

Row | SMILES | pIC50 ([2]; TCAMS data) | Ratio IC50 HepG2/IC50 P. falciparum [4] | pIC50 [4, 8] | IC50 [4, 9] [µM] | Ratio IC50 HepG2/IC50 P. falciparum [3] | IC50 at 48 h [5, 12] [µM] | further results
1 | CCN(CC)CCCn1c(N)c(-c2nc3ccccc3[nH]2)c2nc(C#N)c(C#N)nc21 [TCMDC-123680] | 6.57 | 62 | – | – | – | – | % Control luminiscence [1]: 100%; pIC50 [3]: 5.06; IC50 [4, 7]: 0.14 µM
2 | CN(C)CCCn1c(N)c(-c2nc3ccccc3[nH]2)c2nc(C#N)c(C#N)nc21 [TCMDC-123729] | 6.23 | 35 | – | – | – | – | % Control luminiscence [1]: 100%; pIC50 [3]: 5.16; IC50 [4, 7]: 0.2 µM
3 | c1ccc(CSC2=NNC(c3ccccn3)S2)cc1 (centres unmarked) [TCMDC-123769] | 5.83 | >3 | 5.10 | – | – | – | % Control luminiscence [1]: 100%; pIC50 [3]: < 4.60; IC50 [4, 7]: 7.98 µM
4 | N=c1n(Cc2ccc(Cl)cc2)c2ccccc2n1CC(O)c1ccc(Cl)c(Cl)c1 (centres unmarked) [TCMDC-123813] | 6.17 | 18 | 6.45 | – | – | – | % Control luminiscence [1]: 99%; pIC50 [3]: 5.19; IC50 [4, 7]: 0.36 µM
5 | Cc1ccc(Nc2nc(-c3ccccn3)cs2)nc1 [TCMDC-125854] | 6.12 | – | 6.80 | 0.16 | – | – | % Control luminiscence [1]: 100%
6 | COc1ccc(-c2cc(-c3ccc(S(C)(=O)=O)cc3)cnc2N)cn1 [TCMDC-133351] | 6.73 | – | – | 1.18 | – | – | % Control luminiscence [1]: 100%; IC50 [2, 10]: 0.19 µM; pIC50 [4, 11]: 5.93
7 | CS(=O)(=O)c1cccc(-c2cnc3[nH]cc(-c4cccc(CCN)c4)c3c2)c1 [TCMDC-136307] | 5.81 | >53 | – | 0.47 | >53 | > 25 | IC50 [2, 10]: 1.56 µM
8 | COc1cc(CCNC(=N)/C=C/c2ccc(Cl)cc2)ccc1Cl [TCMDC-137457] | 6.62 | 50 | – | 0.28 | 50 | 14 | –
9 | CCCCN(CCCC)CCCCNc1c2ccccc2nc2ccccc12 [TCMDC-137461] | 6.83 | 35 | – | 0.55 | 35 | 19 | –
10 | COc1ccc2nc3cc(Cl)ccc3c(NCCCCCCNc3c4ccc(Cl)cc4nc4ccc(OC)cc34)c2c1 [TCMDC-137503] | 6.18 | >500 | – | 0.05 | >500 | > 25 | –
11 | CC(C)CCNC(=N)Nc1ccc(OCCCCCOc2ccc(NC(=N)NCCC(C)C)cc2)cc1 [TCMDC-137614] | 5.97 | >49 | 6.29 | 0.51 | >49 | > 25 | –
12 | CC(C)CCNC(=N)Nc1ccc(OCCCOc2ccc(NC(=N)NCCC(C)C)cc2)cc1 [TCMDC-137615] | 6.70 | >86 | – | 0.29 | >86 | > 25 | –
13 | CC1CCCCN1CCCNc1nc(NCc2ccccc2)c2ccccc2n1 (centres unmarked) [TCMDC-137771] | 6.02 | 143 | – | 0.14 | 143 | 20.1 | IC50 [2, 10]: 0.95 µM; IC50 at 48 h ([5]; HepG2, 48 h exposure, intracellular ATP, read-out: IC50 (μM) Cytotoxicity HepG2): 20 µM
14 | c1cc(C2=N[C@H]3CCCC[C@@H]3N2)ccc1OCCCOc1ccc(C2=N[C@@H]3CCCC[C@H]3N2)cc1 [TCMDC-137803] | 6.14 | >54 | 6.33 | 0.47 | >54 | > 25 | –
15 | CC(=NNC(=S)NCCc1ccccn1)c1ccccn1 [TCMDC-137895] | 6.50 | >17 | – | 1.49 | >17 | > 25 | IC50 [2, 10]: 0.32 µM; pIC50 ([4]; Plasmodium falciparum, gametocytes (GC), value as repeated in the Clusters sheet, read-out: IC50 GC): 5.82; pIC50 [4, 11]: 5.83
16 | c1ccc2c(c1)cc(CNCCCN1CCN(CCCNCc3cc4ccccc4c4ccccc34)CC1)c1ccccc12 [TCMDC-137914] | 6.69 | 12 | – | 1.11 | 12 | – | pIC50 ([5]; IC50 per ratio column head, unit inferred): 4.86
17 | CCN(CC)Cc1cc(Nc2c3ccc(Cl)cc3nc3cccc(OC)c23)ccc1O [TCMDC-139222] | 7.48 | >25 | – | 1 | >25 | > 25 | IC50 [2, 10]: 0.0334 µM; IC50 ([2]; as previously determined for TCAMS, read-out: IC50 (μM) Pf Asexual stages): 0.03 µM; pIC50 [4, 11]: 6.00
18 | N=C(N)Nc1nc(-c2ccc(NC(=O)Nc3cccc(-c4csc(NC(=N)N)n4)c3)cc2)cs1 [TCMDC-139559] | 6.00 | >17 | – | 1.43 | >17 | > 25 | –
19 | CC(C)CNCc1cccc(-c2cccc(CNCCCN3CCN(C)CC3)c2)c1 [TCMDC-140483] | 5.93 | >16 | 5.81 | 1.56 | >16 | > 25 | –
20 | CC(C)CNCc1cccc(-c2cccc(CN(CCN(C)C)C(=O)Nc3ccccc3)c2)c1 [TCMDC-140592] | 6.10 | 24 | – | 0.66 | 24 | 15.8 | –
21 | CN1CCN(CCCN(Cc2ccc(-c3cccc(CNC4CCCC4)c3)cc2)C(=O)Nc2ccccc2)CC1 [TCMDC-140605] | 5.95 | 81 | 6.75 | 0.18 | 81 | 14.3 | –
22 | CN1CCN(CCCNCc2cccc(-c3ccc(CNCCc4ccccc4)cc3)c2)CC1 [TCMDC-140643] | 6.11 | 44 | 6.38 | 0.41 | 44 | 18.2 | –
23 | Cc1c(Cn2ncc(N3CCC(N)CC3)c(Cl)c2=O)cccc1NC(=O)Nc1ccc(-c2ccccc2)cc1 [TCMDC-141931] | 6.16 | 12 | 5.93 | 1.18 | 12 | 14.5 | –
24 | Nc1cc(C=Cc2ccc([N+](=O)[O-])o2)nc2ccccc12 [TCMDC-142295] | 6.44 | 58 | – | 0.2 | 59 | 11.7 | IC50 [2, 10]: 0.37 µM; inhibition at 5 µM [6]: 116%; IC50 at 48 h ([5]; read-out: Cytotoxicity in HepG2 IC50 (µM) Malaria DPU): 12 µM; IC50 ([4]; Plasmodium falciparum, dose-response, read-out: IC50 Pf Gametocytes average IC50 (µM) average): 0.21 µM
